This series deals with Homo sapiens. As to the kind of experiment: Pharmacokinetic parameters for Trandolapril or its active metabolite of Trandolaprilat, after oral or intravenous (IV) administration of Trandolapril. The following applies: in vivo; for Total CL: iv.

SMILES strings stand for the structures. Values joined by “and” are separate entries in the source; they are usually repeats but may differ in a detail not shown here. Equal entries are not always repeated.

From ChEMBL document CHEMBL3832053, “DailyMed|setid=94de983f-549b-42ed-9f40-b022aa3bef0f | TRANDOLAPRIL- trandolapril tablet|Carilion Materials Management” come the findings set out here.

For the compound `CCOC(=O)[C@H](CCc1ccccc1)N[C@@H](C)C(=O)N1[C@H](C(=O)O)C[C@H]2CCCC[C@@H]21` [TRANDOLAPRIL], the “Total CL” value amounted to 52 L/h. In addition, under “po”, the CL renal fell in the range of 1 to 4 L/h and the t1/2 was 6 h.

Take `C[C@H](N[C@@H](CCc1ccccc1)C(=O)O)C(=O)N1[C@H](C(=O)O)C[C@H]2CCCC[C@@H]21` [TRANDOLAPRILAT]: the “Total CL” value is 7 L/h. In addition, for the setting “po”, the Excretion is 66% and 33%; the F amounted to 70%; the Protein binding is 94% and 65%; the t1/2 ss turned out to be 22.5 h.
